Results reported in patent US20230322769A1, “HETEROAROMATIC RING COMPOUND AS RET KINASE INHIBITOR, AND PREPARATION AND USE THEREOF” (JIANGSU CHIA TAI FENGHAI PHARMACEUTICAL CO., LTD., priority 2020, published 2023).

Columns and labels:
[1] = system: Ba/F3 KIF5B-RET-V804M cells; experiment: Ba/F3 KIF5B-RET-V804M cell inhibition (CellTiter-Glo); assay type: cell-based; conditions: Mus musculus, BaF3, 72 h
Experimental: Activity Experiment 3: Inhibition of Ba/F3 KIF5B-RET Cells by Prepared Compounds Ba/F3 KIF5B-RET, Ba/F3KIF5B-RET-V804M, Ba/F3 RET-M918T and Ba/F3 KIF5B-RET-G810R cells growing in log phase were harvested and counted using a […]. The cell viability was determined by the trypan blue exclusion method, and the cell viability was kept over 90%. The cell concentration was adjusted, and 90 μL of the cell suspension was added to a 96-well plate. The cells in the 96-well plate were incubated overnight at 37° C. with 5% CO2 and 95% humidity. Corresponding gradient concentrations of drug solutions (the maximum concentration was 1000 nM) were added to the 96-well plate inoculated with cells at 10 μL/well. Triplicate wells were set per drug concentration, and the final concentration of DMSO was 0.1%. The drug-treated cells in the 96-well plate were incubated for another 72 h at 37° C. with 5% CO2 and 95% humidity. After the drug treatment was completed, 100 μL of CellTiter-Glo reagent was added to each well. The cell plate was shaken on an orbital shaker for 5 min to lyse the cells and then let stand at room temperature for 20 min to stabilize the luminescence signals, and then the luminescence values were read. The data were analyzed using the GraphPad Prism 5.0 software. Dose-response curves were fit to the data using nonlinear S-curve regression, and IC50 was calculated from the curves.

FGFR2 V564I = FGFR2 V564I (Homo sapiens (Human), UniProt P21802, V564I); experiment: HTRF kinase activity assay, FGFR2 V564I; assay type: biochemical
Sequence of FGFR2 V564I (P21802 22-821 V564I): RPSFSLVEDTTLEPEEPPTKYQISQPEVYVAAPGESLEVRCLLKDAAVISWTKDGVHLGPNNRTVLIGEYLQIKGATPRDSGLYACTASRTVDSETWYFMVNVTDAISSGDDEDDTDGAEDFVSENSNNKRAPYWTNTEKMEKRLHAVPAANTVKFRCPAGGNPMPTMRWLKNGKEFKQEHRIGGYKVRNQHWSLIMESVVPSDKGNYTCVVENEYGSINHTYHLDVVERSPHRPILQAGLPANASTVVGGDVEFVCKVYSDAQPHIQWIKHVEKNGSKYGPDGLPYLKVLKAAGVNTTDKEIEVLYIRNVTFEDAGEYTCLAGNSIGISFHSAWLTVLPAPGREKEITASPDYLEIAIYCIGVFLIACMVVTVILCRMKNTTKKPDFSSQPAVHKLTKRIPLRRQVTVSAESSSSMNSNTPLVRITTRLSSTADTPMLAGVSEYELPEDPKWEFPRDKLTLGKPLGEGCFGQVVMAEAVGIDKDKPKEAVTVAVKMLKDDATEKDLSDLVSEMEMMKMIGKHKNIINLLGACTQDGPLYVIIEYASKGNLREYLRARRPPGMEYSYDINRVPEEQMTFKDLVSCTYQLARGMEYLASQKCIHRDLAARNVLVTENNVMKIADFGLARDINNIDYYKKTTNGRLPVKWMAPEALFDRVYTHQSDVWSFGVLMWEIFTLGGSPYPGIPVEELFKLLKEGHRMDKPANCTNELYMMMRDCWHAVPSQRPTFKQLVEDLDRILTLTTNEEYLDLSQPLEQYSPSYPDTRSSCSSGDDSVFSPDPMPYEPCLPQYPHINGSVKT
Experimental: Activity Experiment 8: Inhibition of FGFR Family Kinases' Activity by Prepared Compounds The compounds were assayed for activity IC50 against the FGFR family kinases. Related kinases were purchased from Carna and Signalchem. The activity assay method for the related kinases was established by homogeneous time-resolved fluorescence (HTRF), and the inhibitory activity of the compounds was determined. […] The kinases and compounds were pre-incubated for 10 min, and then ATP and substrate were added to start the reaction. All the enzyme-catalyzed reactions were carried out at 25° C. for 40 min. After the enzyme-catalyzed reactions were completed, 5 μL of TK antibody-cryptate and streptavidin-XL665 (the reaction concentration of streptavidin-XL665 was 62.5 nM) were added to the reaction mixtures, and the mixtures were incubated at 25° C. for another 60 min.

FGFR3 = FGFR3 (Homo sapiens (Human), UniProt P22607); experiment: HTRF kinase activity assay, FGFR3; assay type: biochemical
Sequence of FGFR3 (P22607 23-806): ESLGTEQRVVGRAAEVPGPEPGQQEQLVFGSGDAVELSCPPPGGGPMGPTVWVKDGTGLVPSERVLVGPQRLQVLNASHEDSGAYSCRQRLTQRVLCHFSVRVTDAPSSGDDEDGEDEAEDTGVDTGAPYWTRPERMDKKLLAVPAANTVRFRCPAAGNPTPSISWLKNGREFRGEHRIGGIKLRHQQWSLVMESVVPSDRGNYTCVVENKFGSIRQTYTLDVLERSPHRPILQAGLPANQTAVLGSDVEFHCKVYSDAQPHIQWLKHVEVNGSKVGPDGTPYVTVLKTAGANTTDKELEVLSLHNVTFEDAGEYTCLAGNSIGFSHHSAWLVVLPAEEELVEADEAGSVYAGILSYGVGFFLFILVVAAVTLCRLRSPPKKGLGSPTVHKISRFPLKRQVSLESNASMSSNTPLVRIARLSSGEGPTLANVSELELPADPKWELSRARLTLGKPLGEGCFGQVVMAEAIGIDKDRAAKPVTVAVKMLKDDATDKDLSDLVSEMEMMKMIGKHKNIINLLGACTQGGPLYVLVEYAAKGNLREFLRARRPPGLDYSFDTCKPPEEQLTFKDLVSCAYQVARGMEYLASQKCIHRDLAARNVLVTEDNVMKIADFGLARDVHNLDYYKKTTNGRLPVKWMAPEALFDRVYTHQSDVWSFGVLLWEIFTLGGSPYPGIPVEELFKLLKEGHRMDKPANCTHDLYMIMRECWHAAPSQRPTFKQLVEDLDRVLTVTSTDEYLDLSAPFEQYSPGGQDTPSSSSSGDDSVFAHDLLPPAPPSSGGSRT
Experimental: (§1) Activity Experiment 8: Inhibition of FGFR Family Kinases' Activity by Prepared Compounds The compounds were assayed for activity IC50 against the FGFR family kinases. Related kinases were purchased from Carna and Signalchem.
(§2) The activity assay method for the related kinases was established by homogeneous time-resolved fluorescence (HTRF), and the inhibitory activity of the compounds was determined. A 5 μL reaction mixture was prepared, comprising 1× enzymatic buffer (Cisbio, HTRF KinEASE™-TK), 5 mM MgCl2, 1 mM DTT, 1 μM TK substrate-biotin (Cisbio, HTRF KinEASE™-TK), corresponding concentrations of ATP and related kinases, and gradient concentrations of compounds.
(§3) The kinases and compounds were pre-incubated for 10 min, and then ATP and substrate were added to start the reaction. All the enzyme-catalyzed reactions were carried out at 25° C. for 40 min. After the enzyme-catalyzed reactions were completed, 5 μL of TK antibody-cryptate and streptavidin-XL665 (the reaction concentration of streptavidin-XL665 was 62.5 nM) were added to the reaction mixtures, and the mixtures were incubated at 25° C. for another 60 min.

FGFR3 K650E = FGFR3 K650E (Homo sapiens (Human), UniProt P22607, K650E); experiment: HTRF kinase activity assay, FGFR3 K650E; assay type: biochemical
Sequence of FGFR3 K650E (P22607 23-806 K650E): as the sequence (P22607 23-806) above, with K628E counted along it
Experimental: as §1, §2, §3

FGFR4 = FGFR4 (Homo sapiens (Human), UniProt P22455); experiment: HTRF kinase activity assay, FGFR4; assay type: biochemical
Sequence of FGFR4 (P22455 22-802): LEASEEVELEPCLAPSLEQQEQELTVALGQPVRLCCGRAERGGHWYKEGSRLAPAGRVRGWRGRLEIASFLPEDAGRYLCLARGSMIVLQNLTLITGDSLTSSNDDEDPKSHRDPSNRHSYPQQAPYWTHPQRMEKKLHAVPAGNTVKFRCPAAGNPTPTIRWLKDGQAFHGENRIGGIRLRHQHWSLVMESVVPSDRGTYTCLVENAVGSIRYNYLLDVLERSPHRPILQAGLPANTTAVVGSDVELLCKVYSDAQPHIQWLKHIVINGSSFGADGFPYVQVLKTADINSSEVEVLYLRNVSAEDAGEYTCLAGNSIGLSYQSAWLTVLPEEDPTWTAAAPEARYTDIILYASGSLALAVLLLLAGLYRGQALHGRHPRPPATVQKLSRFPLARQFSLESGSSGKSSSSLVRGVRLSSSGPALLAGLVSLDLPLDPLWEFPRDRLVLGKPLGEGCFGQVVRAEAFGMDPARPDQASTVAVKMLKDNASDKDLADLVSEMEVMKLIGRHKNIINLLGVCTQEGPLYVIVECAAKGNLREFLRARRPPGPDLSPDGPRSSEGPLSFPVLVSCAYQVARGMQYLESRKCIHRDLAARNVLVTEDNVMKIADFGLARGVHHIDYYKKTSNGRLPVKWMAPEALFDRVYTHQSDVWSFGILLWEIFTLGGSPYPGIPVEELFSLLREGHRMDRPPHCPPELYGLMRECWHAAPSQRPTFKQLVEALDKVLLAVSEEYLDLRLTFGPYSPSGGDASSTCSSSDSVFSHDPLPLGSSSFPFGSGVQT
Experimental: as §1, §2, §3

[2] = Metabolic stability in human liver microsomes; conditions: human liver microsomes, NADPH, Table 3; for microsomal CLint at 1 µM: CLint (μL/min/mg); for half-life at 1 µM: T1/2 (min)
hERG potassium channel = hERG potassium channel (Homo sapiens (Human), UniProt Q12809); experiment: Inhibition of hERG potassium channel, whole-cell patch clamp in HEK293 cells; conditions: read-out: IC50 for inhibition of hERG potassium channel; HEK293 cells stably expressing hERG, patch clamp
RET wild type (RET WT) = RET wild type (RET WT) (Homo sapiens (Human), UniProt P07949); experiment: HTRF kinase activity assay, RET wild type; assay type: biochemical; conditions: 1 μM ATP
Sequence of RET wild type (RET WT) (P07949 29-1114): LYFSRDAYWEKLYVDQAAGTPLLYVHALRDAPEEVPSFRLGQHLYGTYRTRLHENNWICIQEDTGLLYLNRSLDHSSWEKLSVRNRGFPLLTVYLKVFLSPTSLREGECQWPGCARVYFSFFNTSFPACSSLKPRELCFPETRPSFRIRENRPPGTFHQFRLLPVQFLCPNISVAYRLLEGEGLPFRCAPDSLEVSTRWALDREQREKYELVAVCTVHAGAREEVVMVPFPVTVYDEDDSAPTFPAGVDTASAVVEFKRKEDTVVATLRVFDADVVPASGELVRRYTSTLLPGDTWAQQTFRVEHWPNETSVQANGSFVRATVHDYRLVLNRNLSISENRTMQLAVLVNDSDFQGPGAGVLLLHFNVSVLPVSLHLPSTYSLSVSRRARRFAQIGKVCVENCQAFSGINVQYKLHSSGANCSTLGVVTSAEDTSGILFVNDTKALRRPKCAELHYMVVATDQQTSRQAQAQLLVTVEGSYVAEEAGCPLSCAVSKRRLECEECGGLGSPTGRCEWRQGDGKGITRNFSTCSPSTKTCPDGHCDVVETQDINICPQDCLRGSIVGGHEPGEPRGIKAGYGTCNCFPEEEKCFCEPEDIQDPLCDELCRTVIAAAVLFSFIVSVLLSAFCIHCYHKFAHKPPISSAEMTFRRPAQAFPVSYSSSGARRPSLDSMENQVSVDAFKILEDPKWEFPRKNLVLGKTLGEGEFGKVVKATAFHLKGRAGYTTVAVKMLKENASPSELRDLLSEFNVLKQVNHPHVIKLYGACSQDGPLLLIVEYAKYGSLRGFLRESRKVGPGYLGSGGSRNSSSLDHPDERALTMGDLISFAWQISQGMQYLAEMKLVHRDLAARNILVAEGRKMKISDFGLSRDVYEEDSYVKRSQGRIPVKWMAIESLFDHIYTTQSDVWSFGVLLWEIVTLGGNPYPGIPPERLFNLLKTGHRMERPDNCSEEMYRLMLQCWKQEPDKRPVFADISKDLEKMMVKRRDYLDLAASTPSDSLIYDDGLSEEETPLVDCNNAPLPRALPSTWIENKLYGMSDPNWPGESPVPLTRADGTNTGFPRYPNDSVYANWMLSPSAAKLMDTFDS

KDR (VEGFR2) = KDR (VEGFR2) (Homo sapiens (Human), UniProt P35968); experiment: HTRF kinase activity assay, KDR; assay type: biochemical; conditions: 20 μM ATP
Sequence of KDR (VEGFR2) (P35968 20-1356): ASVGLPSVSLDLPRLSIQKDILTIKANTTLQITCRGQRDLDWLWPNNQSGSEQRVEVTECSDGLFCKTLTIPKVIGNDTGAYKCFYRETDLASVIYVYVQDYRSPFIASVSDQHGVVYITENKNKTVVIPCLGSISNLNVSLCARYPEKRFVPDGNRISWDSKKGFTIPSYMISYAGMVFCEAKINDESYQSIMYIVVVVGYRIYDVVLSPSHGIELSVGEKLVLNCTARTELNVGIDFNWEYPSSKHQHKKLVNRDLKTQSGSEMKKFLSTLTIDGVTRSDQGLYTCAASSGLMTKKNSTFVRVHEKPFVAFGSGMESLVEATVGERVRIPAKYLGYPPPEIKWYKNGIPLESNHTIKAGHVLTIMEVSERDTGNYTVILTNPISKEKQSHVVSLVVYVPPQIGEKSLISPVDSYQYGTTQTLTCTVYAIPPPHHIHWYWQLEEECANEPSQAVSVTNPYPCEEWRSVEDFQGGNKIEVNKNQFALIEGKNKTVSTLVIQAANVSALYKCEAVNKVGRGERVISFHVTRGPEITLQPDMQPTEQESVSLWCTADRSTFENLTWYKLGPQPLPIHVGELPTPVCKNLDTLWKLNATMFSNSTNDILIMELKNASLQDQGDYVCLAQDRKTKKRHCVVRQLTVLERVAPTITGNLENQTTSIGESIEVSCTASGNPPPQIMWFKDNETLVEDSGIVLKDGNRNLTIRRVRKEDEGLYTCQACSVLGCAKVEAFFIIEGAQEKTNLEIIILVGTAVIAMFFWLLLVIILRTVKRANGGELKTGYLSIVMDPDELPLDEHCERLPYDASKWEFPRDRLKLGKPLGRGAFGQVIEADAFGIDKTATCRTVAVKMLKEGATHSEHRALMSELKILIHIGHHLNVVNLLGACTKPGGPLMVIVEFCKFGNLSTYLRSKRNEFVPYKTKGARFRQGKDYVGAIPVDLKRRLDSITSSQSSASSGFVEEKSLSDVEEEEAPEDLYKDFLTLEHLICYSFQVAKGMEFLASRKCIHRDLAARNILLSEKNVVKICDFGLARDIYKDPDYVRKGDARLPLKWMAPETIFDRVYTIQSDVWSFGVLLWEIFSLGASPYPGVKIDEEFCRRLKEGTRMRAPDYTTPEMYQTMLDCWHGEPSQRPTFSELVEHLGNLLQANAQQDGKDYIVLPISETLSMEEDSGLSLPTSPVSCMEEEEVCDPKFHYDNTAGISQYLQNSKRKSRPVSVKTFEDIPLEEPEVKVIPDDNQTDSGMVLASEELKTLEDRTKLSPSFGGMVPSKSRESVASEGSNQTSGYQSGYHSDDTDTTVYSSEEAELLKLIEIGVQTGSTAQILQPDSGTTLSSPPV

SMILES | IC50 [1] | IC50 (FGFR2 V564I) | IC50 (FGFR3) | IC50 (FGFR3 K650E) | IC50 (FGFR4) | microsomal CLint at 1 µM [2] | half-life at 1 µM [2] | IC50 (hERG potassium channel) | IC50 (RET wild type (RET WT)) | IC50 (KDR (VEGFR2))
COc1ccc(CN2C3CC2CN(c2ccc(-c4cc(OCC(C)(C)O)cn5ncc(C#N)c45)cn2)C3)cn1 [Selpercatinib, selpercatinib, reference compound] | 38.4 nM | 97.6 nM | 349 nM | 45.9 nM | 475 nM | 60.4 µL/min/mg | 22.9 min | 2750 nM | – | –
[2H]C([2H])([2H])N1CCN(c2cc(-c3ccc(N4CC5CC(C4)N5Cc4ccc(OC)nc4)nc3)c3c(C#N)cnn3c2)CC1 [Compound 94] | 99 nM | 45.6 nM | 309 nM | 36.5 nM | 595 nM | 41.2 µL/min/mg | 33.6 min | – | 4.62 nM | 169 nM
